# In US20240409585A1, “MACROCYCLIC IMMUNOMODULATORS” (priority 2021, published 2024):
# Numbered stars: 1 amine (or outer) side, 2 acyl side, 3 side chain; on linkers, the order of the positions; unused ones are H or OH. Bridge positions count the residues as written; N and C are the ends. Square brackets hold non-standard residues; d marks the D form. Peptide text beside a SMILES is read from it. Bip = N[C@@H](Cc1ccc(-c2ccccc2)cc1)C(=O)O; Phe(3-Cl) = N[C@@H](Cc1cccc(Cl)c1)C(=O)O; X50 = C[C@@H](C(=O)[*:2])N(CCCCCN)[*:1]; dPip = O=C(O)[C@H]1CCCCN1; NMeA = CN[C@@H](C)C(=O)O; Nle = CCCC[C@H](N)C(=O)O; Orn = NCCC[C@H](N)C(=O)O; Dab = NCC[C@H](N)C(=O)O; Nva = CCC[C@H](N)C(=O)O
# Target: T1, PE-labeled human PD-L1-Ig binding to Jurkat cell line over-expressing human PD-1 (Jurkat-PD-1) (Homo sapiens, UniProt Q15116)
# T1 construct: expressed in transfected cells; host or cells: Jurkat
# T1 sequence (Q15116 25-288): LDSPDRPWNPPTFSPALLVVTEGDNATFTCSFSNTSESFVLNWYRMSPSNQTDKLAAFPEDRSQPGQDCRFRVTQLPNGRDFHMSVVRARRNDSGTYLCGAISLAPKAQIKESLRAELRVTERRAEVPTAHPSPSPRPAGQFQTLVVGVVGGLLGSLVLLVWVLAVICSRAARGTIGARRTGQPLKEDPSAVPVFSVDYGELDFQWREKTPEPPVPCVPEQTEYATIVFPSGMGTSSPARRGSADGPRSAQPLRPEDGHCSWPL
# Experiment: Jurkat-PD-1 Cell Binding High-Content Screening Assay (CBA): Method 1
# Settings: Jurkat-hPD-1 cells, PE-labeled PD-L1-Ig 20 nM final; read-out: Jurkat HPDL1 PD1 IC50 (uM) (Method 1)
row,Compound,IC50 [µM]
1,CC(C)C[C@@H]1NC(=O)[C@H](CCCNC(=N)N)NC(=O)[C@@H](CC(C)C)NC(=O)[C@H](C)N(C)C(=O)[C@H](CCC(=O)O)NC(=O)[C@H](Cc2ccc(-c3ccccc3)cc2)NC(=O)[C@H](C(C)C)NC(=O)[C@H](Cc2c[nH]c3ccccc23)NC(=O)[C@H](CC(=O)O)NC(=O)[C@H](Cc2ccc(O)cc2)NC(=O)[C@H](CC(N)=O)NC(=O)CSC[C@@H](C(=O)N[C@@H](C)C(N)=O)NC(=O)[C@H](CO)NC(=O)[C@H](C(C)C)NC1=O [Compound 1256] ({CH2CO}-NYDWV[Bip]E[NMeA][dL]RLVSCA-NH2; thioether N-14),0.06
2,CC(C)C[C@@H]1NC(=O)[C@H](CCN)NC(=O)[C@@H](CC(C)C)NC(=O)[C@H](C)N(CCCCCN)C(=O)[C@H](CCCNC(=N)N)NC(=O)[C@H](Cc2ccc(-c3ccccc3)cc2)NC(=O)[C@H](C(C)C)NC(=O)[C@H](Cc2c[nH]c3ccccc23)NC(=O)[C@H](CC(=O)O)NC(=O)[C@H](Cc2ccc(O)cc2)NC(=O)[C@H](CC(N)=O)NC(=O)CSC[C@@H](C(=O)N[C@@H](C)C(N)=O)NC(=O)[C@H]([C@@H](C)O)NC(=O)[C@H](C(C)C)NC1=O [Compound 1257] ({CH2CO}-NYDWV[Bip]R[X50][dL][Dab]LVTCA-NH2; thioether N-14),0.13
3,CCC[C@@H]1NC(=O)[C@H](Cc2ccc(-c3ccccc3)cc2)NC(=O)[C@H](C(C)C)NC(=O)[C@H](Cc2c[nH]c3ccccc23)NC(=O)[C@H](CC(=O)O)NC(=O)[C@H](Cc2ccc(O)cc2)NC(=O)[C@H](CC(N)=O)NC(=O)CSC[C@@H](C(=O)N[C@@H](C)C(N)=O)NC(=O)[C@H]([C@@H](C)O)NC(=O)[C@H](C(C)C)NC(=O)[C@H](CC(C)C)NC(=O)[C@H](CCN)NC(=O)[C@@H](CC(C)C)NC(=O)[C@H](C)N(C)C1=O [Compound 1258] ({CH2CO}-NYDWV[Bip][Nva][NMeA][dL][Dab]LVTCA-NH2; thioether N-14),0.04
4,CC(C)C[C@@H]1NC(=O)[C@H](CCN)NC(=O)[C@@H](CC(C)C)NC(=O)[C@H](C)N(C)C(=O)[C@H](CC(N)=O)NC(=O)[C@H](Cc2ccc(-c3ccccc3)cc2)NC(=O)[C@H](C(C)C)NC(=O)[C@H](Cc2c[nH]c3ccccc23)NC(=O)[C@H](CC(=O)O)NC(=O)[C@H](Cc2ccc(O)cc2)NC(=O)[C@H](CC(N)=O)NC(=O)CSC[C@@H](C(=O)N[C@@H](C)C(N)=O)NC(=O)[C@H]([C@@H](C)O)NC(=O)[C@H](C(C)C)NC1=O [Compound 1259] ({CH2CO}-NYDWV[Bip]N[NMeA][dL][Dab]LVTCA-NH2; thioether N-14),0.11
5,CC(C)C[C@@H]1NC(=O)[C@H](CCN)NC(=O)[C@@H](CC(C)C)NC(=O)[C@H](C)N(C)C(=O)[C@H](CC(=O)O)NC(=O)[C@H](Cc2ccc(-c3ccccc3)cc2)NC(=O)[C@H](C(C)C)NC(=O)[C@H](Cc2c[nH]c3ccccc23)NC(=O)[C@H](CC(=O)O)NC(=O)[C@H](Cc2ccc(O)cc2)NC(=O)[C@H](CC(N)=O)NC(=O)CSC[C@@H](C(=O)N[C@@H](C)C(N)=O)NC(=O)[C@H]([C@@H](C)O)NC(=O)[C@H](C(C)C)NC1=O [Compound 1260] ({CH2CO}-NYDWV[Bip]D[NMeA][dL][Dab]LVTCA-NH2; thioether N-14),0.17
6,CC(C)C[C@@H]1NC(=O)[C@H](CCN)NC(=O)[C@@H](CC(C)C)NC(=O)[C@H](C)N(C)C(=O)[C@H](CO)NC(=O)[C@H](Cc2ccc(-c3ccccc3)cc2)NC(=O)[C@H](C(C)C)NC(=O)[C@H](Cc2c[nH]c3ccccc23)NC(=O)[C@H](CC(=O)O)NC(=O)[C@H](Cc2ccc(O)cc2)NC(=O)[C@H](CC(N)=O)NC(=O)CSC[C@@H](C(=O)N[C@@H](C)C(N)=O)NC(=O)[C@H]([C@@H](C)O)NC(=O)[C@H](C(C)C)NC1=O [Compound 1261] ({CH2CO}-NYDWV[Bip]S[NMeA][dL][Dab]LVTCA-NH2; thioether N-14),0.08
7,CC(C)C[C@@H]1NC(=O)[C@H](CCN)NC(=O)[C@@H](CC(C)C)NC(=O)[C@H](C)N(C)C(=O)[C@H](Cc2c[nH]c3ccccc23)NC(=O)[C@H](Cc2ccc(-c3ccccc3)cc2)NC(=O)[C@H](C(C)C)NC(=O)[C@H](Cc2c[nH]c3ccccc23)NC(=O)[C@H](CC(=O)O)NC(=O)[C@H](Cc2ccc(O)cc2)NC(=O)[C@H](CC(N)=O)NC(=O)CSC[C@@H](C(=O)N[C@@H](C)C(N)=O)NC(=O)[C@H]([C@@H](C)O)NC(=O)[C@H](C(C)C)NC1=O [Compound 1263] ({CH2CO}-NYDWV[Bip]W[NMeA][dL][Dab]LVTCA-NH2; thioether N-14),0.89
8,CCCC[C@@H]1NC(=O)[C@H](CCN)NC(=O)[C@@H](CC(C)C)NC(=O)[C@H](C)N(C)C(=O)[C@H](CCCN)NC(=O)[C@H](Cc2ccc(-c3ccccc3)cc2)NC(=O)[C@H](C(C)C)NC(=O)[C@H](Cc2c[nH]c3ccccc23)NC(=O)[C@H](CC(=O)O)NC(=O)[C@H](Cc2ccc(O)cc2)NC(=O)[C@H](CC(N)=O)NC(=O)CSC[C@@H](C(=O)N[C@@H](C)C(N)=O)NC(=O)[C@H]([C@@H](C)O)NC(=O)[C@H](C(C)C)NC1=O [Compound 1267] ({CH2CO}-NYDWV[Bip][Orn][NMeA][dL][Dab][Nle]VTCA-NH2; thioether N-14),0.26
9,CC(C)C[C@@H]1NC(=O)[C@H](CCN)NC(=O)[C@@H](CC(C)C)NC(=O)[C@H]2CCCCN2C(=O)[C@H](C(C)C)NC(=O)[C@H](Cc2ccc(-c3ccccc3)cc2)NC(=O)[C@H](C(C)C)NC(=O)[C@H](Cc2c[nH]c3ccccc23)NC(=O)[C@H](CC(=O)O)NC(=O)[C@H](Cc2ccc(O)cc2)NC(=O)[C@H](CC(N)=O)NC(=O)CSC[C@@H](C(=O)N[C@@H](C)C(N)=O)NC(=O)[C@H]([C@@H](C)O)NC(=O)[C@H](C(C)C)NC1=O [Compound 1268] ({CH2CO}-NYDWV[Bip]V[dPip][dL][Dab]LVTCA-NH2; thioether N-14),0.11
10,CC(C)C[C@@H]1NC(=O)[C@H](CCN)NC(=O)[C@@H](CC(C)C)NC(=O)[C@H](C)N(C)C(=O)[C@H](CC(C)C)NC(=O)[C@H](Cc2ccc(-c3ccccc3)cc2)NC(=O)[C@H](C(C)C)NC(=O)[C@H](Cc2c[nH]c3ccccc23)NC(=O)[C@H](CC(=O)O)NC(=O)[C@H](Cc2ccc(O)cc2)NC(=O)[C@H](CC(N)=O)NC(=O)CSC[C@@H](C(=O)N[C@@H](C)C(N)=O)NC(=O)[C@H]([C@@H](C)O)NC(=O)[C@H](C(C)C)NC1=O [Compound 1270] ({CH2CO}-NYDWV[Bip]L[NMeA][dL][Dab]LVTCA-NH2; thioether N-14),0.11
11,CCCC[C@@H]1NC(=O)[C@H](Cc2ccc(-c3ccccc3)cc2)NC(=O)[C@H](C(C)C)NC(=O)[C@H](Cc2c[nH]c3ccccc23)NC(=O)[C@H](CC(=O)O)NC(=O)[C@H](Cc2ccc(O)cc2)NC(=O)[C@H](CC(N)=O)NC(=O)CSC[C@@H](C(=O)N[C@@H](C)C(N)=O)NC(=O)[C@H]([C@@H](C)O)NC(=O)[C@H](C(C)C)NC(=O)[C@H](CC(C)C)NC(=O)[C@H](CCN)NC(=O)[C@@H](CC(C)C)NC(=O)[C@H](C)N(C)C1=O [Compound 1271] ({CH2CO}-NYDWV[Bip][Nle][NMeA][dL][Dab]LVTCA-NH2; thioether N-14),0.03

# Further lines, results first:
row,IC50 [µM],Compound
1,0.03,CC(C)C[C@@H]1NC(=O)[C@H](CCCNC(=N)N)NC(=O)[C@@H](CC(C)C)NC(=O)[C@H](C)N(C)C(=O)[C@H](CCC(=O)O)NC(=O)[C@H](Cc2ccc(-c3ccccc3)cc2)NC(=O)[C@H](C(C)C)NC(=O)[C@H](Cc2c[nH]c3ccccc23)NC(=O)[C@H](CC(=O)O)NC(=O)[C@H](Cc2ccc(O)cc2)NC(=O)[C@H](CC(N)=O)NC(=O)CSC[C@@H](C(=O)N[C@@H](C)C(N)=O)NC(=O)[C@H]([C@@H](C)O)NC(=O)[C@H](C(C)C)NC1=O [Compound 1254] ({CH2CO}-NYDWV[Bip]E[NMeA][dL]RLVTCA-NH2; thioether N-14)
2,0.03,CC(C)C[C@@H]1NC(=O)[C@H](CCN)NC(=O)[C@@H](CC(C)C)NC(=O)[C@H](C)N(C)C(=O)[C@H](CCC(=O)O)NC(=O)[C@H](Cc2ccc(-c3ccccc3)cc2)NC(=O)[C@H](C(C)C)NC(=O)[C@H](Cc2c[nH]c3ccccc23)NC(=O)[C@H](CC(=O)O)NC(=O)[C@H](Cc2ccc(O)cc2)NC(=O)[C@H](CC(N)=O)NC(=O)CSC[C@@H](C(=O)N[C@@H](C)C(N)=O)NC(=O)[C@H]([C@@H](C)O)NC(=O)[C@H](C(C)C)NC1=O [Compound 1255] ({CH2CO}-NYDWV[Bip]E[NMeA][dL][Dab]LVTCA-NH2; thioether N-14)
3,0.01,CC(C)C[C@@H]1NC(=O)[C@H](CCN)NC(=O)[C@@H](CC(C)C)NC(=O)[C@H](C)N(C)C(=O)[C@H](C(C)C)NC(=O)[C@H](Cc2ccc(-c3ccccc3)cc2)NC(=O)[C@H](C(C)C)NC(=O)[C@H](Cc2cccc(Cl)c2)NC(=O)[C@H](CC(=O)O)NC(=O)[C@H](Cc2ccc(O)cc2)NC(=O)[C@H](CC(N)=O)NC(=O)CSC[C@@H](C(=O)N[C@@H](C)C(N)=O)NC(=O)[C@H]([C@@H](C)O)NC(=O)[C@H](C(C)C)NC1=O [Compound 1265] ({CH2CO}-NYD[Phe(3-Cl)]V[Bip]V[NMeA][dL][Dab]LVTCA-NH2; thioether N-14)
4,0.03,CC(C)C[C@@H]1NC(=O)[C@H](CCN)NC(=O)[C@@H](CC(C)C)NC(=O)[C@H](C)N(C)C(=O)[C@H](CCCN)NC(=O)[C@H](Cc2ccc(-c3ccccc3)cc2)NC(=O)[C@H](C(C)C)NC(=O)[C@H](Cc2c[nH]c3ccccc23)NC(=O)[C@H](CC(=O)O)NC(=O)[C@H](Cc2ccc(O)cc2)NC(=O)[C@H](CC(N)=O)NC(=O)CSC[C@@H](C(=O)N[C@@H](C)C(N)=O)NC(=O)[C@H]([C@@H](C)O)NC(=O)[C@H](C(C)C)NC1=O [Compound 1266] ({CH2CO}-NYDWV[Bip][Orn][NMeA][dL][Dab]LVTCA-NH2; thioether N-14)
5,0.03,CC(C)C[C@@H]1NC(=O)[C@H](CCCCN)NC(=O)[C@@H](CC(C)C)NC(=O)[C@H](C)N(C)C(=O)[C@H](CCCNC(=N)N)NC(=O)[C@H](Cc2ccc(-c3ccccc3)cc2)NC(=O)[C@H](C(C)C)NC(=O)[C@H](Cc2c[nH]c3ccccc23)NC(=O)[C@H](CC(=O)O)NC(=O)[C@H](Cc2ccc(O)cc2)NC(=O)[C@H](CC(N)=O)NC(=O)CSC[C@@H](C(=O)N[C@@H](C)C(N)=O)NC(=O)[C@H]([C@@H](C)O)NC(=O)[C@H](C(C)C)NC1=O [Compound 1269] ({CH2CO}-NYDWV[Bip]R[NMeA][dL]KLVTCA-NH2; thioether N-14)
